Where two headings read alike, the source gives them in different places.
Assays:
[1] = Stability under high humidity; type: physicochemical
Description: The semihydrate crystal obtained in Example 1 was placed under the condition of relative humidity of 90%±5% for 10 days, and samples were taken on the 5th and 10th days.
Utidelone anhydrous crystal was placed under the condition of relative humidity of 90±5% for 10 days. Samples were taken on the 5th and 10th days. The moisture content increased and the moisture absorption was obvious.

[2] = PK study on intravenous administration of the pharmaceutical composition containing Utidelone semihydrate crystal; type: in vivo; details: for MRT / AUC(0-t) / half-life: human, in vivo, iv, 40 mg/m2, intravenous infusion 40 mg/m2 once a day for 5 days; for AUC(0-t): read-out: AUC(0-24); for half-life: read-out: elimination half-life t½ in plasma (converted); for apparent volume of distribution / plasma clearance CL: intravenous infusion 40 mg/m2 once a day for 5 days
Procedure: Utidelone injection was prepared with Utidelone crystals (crystal A or mixed crystals containing crystal A) and 50% v/v absolute ethanol (USP), 30% v/v propylene glycol (USP) and 20% v/v polyoxyl castor oil 1 (Cremophor EL or ELP) as a solubilizer. The injection has low water content and high stability.

[3] = Stability test of the semihydrate crystal under storage conditions (temperature); type: physicochemical
Procedure: Stability test: The stability test of the semihydrate crystal was carried out under the following conditions:
(§1) Storage condition 1: 2-25° C., stored in a sealed state for more than 3 years, confirmed by NMR, HPLC, X-ray powder diffraction and infrared spectrum analysis, etc., the semihydrate crystal was stable (no changes in content, no impurities due to degradation, no changes in appearance and physicochemical properties).
as §1, with “Condition 2: 25°” for “condition 1: 2-25°”, “60%±10% RH, unsealed storage” for “stored in a sealed state”, “days, after the sample was continued to be stored at 25° C. for 1 year, it was” for “years,”
as §1, with “3: Stored” for “1: 2-25° C., stored”, “state at 40° C.” for “state”, “2 years. It was” for “3 years,”
as §1, with “Condition 4: Stored at 60° C.” for “condition 1: 2-25° C., stored in a sealed state”, “1 year. It was” for “3 years,”

[4] = Stability under strong light (light box); type: physicochemical; details: 4500 lx±500 lx, 10 days
Description: The semihydrate crystal obtained in Example 1 was placed in a light box, and placed for 10 days under the condition that the light intensity was 4500 lx±500 lx.

Solubility test = type: physicochemical; details: thermodynamic from solid
[5] = Stability in 0.1N hydrochloric acid solution; type: physicochemical
Procedure: The semihydrate crystal obtained in Example 1 was placed in a 0.1N hydrochloric acid solution, and the crystal was stable: no obvious degradation impurities were produced. Solubility >5 mg/ml.

[6] = relative humidity 90%±5%, 10 days, samples on 5th and 10th days
[7] = high humidity conditions (summary statement)

## C/C1=C/C[C@@H](/C(C)=C/c2csc(C)n2)OC(=O)C[C@H](O)C(C)(C)C(=O)[C@H](C)[C@@H](O)[C@@H](C)CCC1 [Utidelone anhydrous crystal]
[1]; [6]
  Moisture content: increased
[1]; relative humidity 90±5%, 10 days, samples on 5th and 10th days
  Moisture absorption: obvious

## C/C1=C/C[C@@H](/C(C)=C/c2csc(C)n2)OC(=O)C[C@H](O)C(C)(C)C(=O)[C@H](C)[C@@H](O)[C@@H](C)CCC1 [Utidelone]
[2]; 40 mg/m2 once a day for 5 days, first vs last administration
  Accumulation in the body after continuous administration: did not accumulate
[2]; 1st day
  MRT: 4.5 ± 0.8 h
  AUC(0-t): 4180 ± 1010 ng·h/mL
  half-life: 8.6 ± 0.1 h
  apparent volume of distribution: 114.0±35.2 L/m2
  plasma clearance CL: 9.2±2.7 L/h/m2
[2]; 5th day
  MRT: 5.1 ± 0.7 h
  AUC(0-t): 4550 ± 1630 ng·h/mL
  half-life: 8.2 ± 1.1 h
  apparent volume of distribution: 109.1±62.6 L/m2
  plasma clearance CL: 8.9±3.9 L/h/m2

## C/C1=C/C[C@@H](/C(C)=C/c2csc(C)n2)OC(=O)C[C@H](O)C(C)(C)C(=O)[C@H](C)[C@@H](O)[C@@H](C)CCC1 [semihydrate crystal]
[3]; 40° C.
  Storage time without changes in substance: more than 3 years
[3]; 60° C.
  Storage time without changes in substance: more than 1 year
[3]; Storage condition 1: 2-25° C., sealed, more than 3 years, NMR, HPLC, XRPD, IR
  Stability (content, degradation impurities, appearance, physicochemical properties): stable
[3]; Storage condition 2: 25° C., 60%±10% RH, unsealed more than 3 days, then 25° C. for 1 year
  Stability (content, degradation impurities, appearance, physicochemical properties): stable
[3]; Storage condition 3: sealed, 40° C., more than 2 years
  Stability (content, degradation impurities, appearance, physicochemical properties): stable
[3]; Storage condition 4: 60° C., more than 1 year
  Stability (content, degradation impurities, appearance, physicochemical properties): stable
[1]; [7]
  Stability: very stable
  Water content: does not change significantly
[1]; [6]
  Moisture content: basically unchanged
  Stability (content, degradation impurities, appearance, physicochemical properties): stable
[4]
  Moisture content: basically unchanged
  Stability (content, degradation impurities, appearance, physicochemical properties): stable
Solubility test; 0.1N hydrochloric acid solution, simulated gastric fluid
  solubility: > 5 mg/mL
Solubility test; 50% ethanol, 30% propylene glycol, 20% castor oil, organic solvent or mixture
  solubility: > 100 mg/mL
Solubility test; DMSO, organic solvent or mixture
  solubility: > 50 mg/mL
Solubility test; benzyl alcohol, organic solvent or mixture
  solubility: > 50 mg/mL
Solubility test; ethanol, organic solvent or mixture
  solubility: > 50 mg/mL
Solubility test; methanol, organic solvent or mixture
  solubility: > 50 mg/mL
Solubility test; propylene glycol, organic solvent or mixture
  solubility: > 50 mg/mL
[5]
  Stability (degradation impurities): stable

Source: US12617781B2, “Utidelone semi-hydrated single crystal and preparation method therefor and use thereof” (Beijing Biostar Pharmaceuticals Co., Ltd., priority 2020, dated 2026)
